The values that follow come from ChEMBL document CHEMBL1201862, “PubChem BioAssay data set” (2004).

Test systems include CAKI-1; HCC 2998; HCT-116; HCT-15; HOP-92; K562; KM12; MOLT-4; NCI-H23; NCI-H460; NCI/ADR-RES; OVCAR-5; RPMI-8226; SF-268; SN12C; SNB-19; SW-620; UACC-257; UACC-62; HL-60.
Common to all, as to assay: NCI tumour cell line growth inhibition, 48 h

Structures are written as SMILES.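 Five concentrations, 48 hours, 96-well plates. GI50 is the concentration that inhibits growth by half.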 Calls of active or inactive are those of the source. No stated cut-off is given here; in the data, active = GI50 up to about 1.1 µM and inactive = higher.

Take `Cn1c(=O)c2c(-c3ccccc3)onc2n(C)c1=O`: the GI50 with CAKI-1 was 42.1 µM (inactive); with HCC 2998, 32.7 µM (inactive); in the experiment on HCT-116, 27.4 µM (inactive); with HCT-15 it was 21.1 µM; in the experiment on HOP-92, 42 µM (inactive); in the experiment on K562 it was 30.3 µM (inactive). The GI50 was 34 µM (inactive) in the experiment with KM12; 26.8 µM (inactive) in the experiment with MOLT-4; 14 µM (inactive) in the experiment with NCI-H23; 35.9 µM (inactive) in the experiment with NCI-H460; 27.5 µM (inactive) in the experiment on NCI/ADR-RES; 31 µM (inactive) in the experiment on OVCAR-5. For the same compound, the GI50 in the experiment with RPMI-8226 is 15 µM (inactive); in the experiment with SF-268, 35.2 µM (inactive); in the experiment with SN12C it was 30.4 µM (inactive); in the experiment on SNB-19, 40.7 µM (inactive); in the experiment with SW-620, 26.6 µM (inactive); with UACC-257, 31.3 µM (inactive). Besides, the GI50 with UACC-62 was 21.7 µM (inactive).
Consider `CC(C)[Si](OC/C(=C/COC(C)(C)C)[C@H]1CC=C(C(=O)c2ccccc2N2CN(C)C(=O)N(C)C2)C1)(C(C)C)C(C)C`, for which the GI50 was 4.29 µM (inactive) with CAKI-1; 12.4 µM (inactive) in the experiment with HCC 2998; 2.3 µM (inactive) in the experiment on HCT-116; 12.3 µM with HCT-15; 9.73 µM (inactive) in the experiment with HOP-92; 1.08 µM (active) in the experiment with K562. The GI50 with KM12 was 13.7 µM (inactive); with MOLT-4 it was 0.366 µM (active); in the experiment with NCI-H23 it was 15.2 µM (inactive); in the experiment on NCI-H460 it was 12.6 µM (inactive); in the experiment on NCI/ADR-RES it was 16.4 µM (inactive); in the experiment on OVCAR-5, 14.2 µM (inactive). The GI50 in the experiment with RPMI-8226 was 6.05 µM (inactive); in the experiment on SF-268 it was 6.58 µM (inactive); with SN12C, 12.4 µM (inactive); with SNB-19, 12.1 µM (inactive); in the experiment on SW-620, 3.17 µM (inactive); with UACC-257, 6.28 µM (inactive). Also, the GI50 with UACC-62 is 10.8 µM (inactive).
As to `Cc1csc(NC23CC4CC(CC(C4)C2)C3)[n+]1C(P(=O)([O-])O)P(=O)(O)O` (centres undefined), the GI50 in the experiment on CAKI-1 was > 100 µM (inactive); in the experiment on HCC 2998, > 100 µM (inactive); in the experiment with HCT-116, > 100 µM (inactive); in the experiment with HCT-15, > 100 µM; in the experiment with HOP-92, > 100 µM (inactive); in the experiment on K562 it was > 100 µM (inactive). Further, the GI50 in the experiment on KM12, in the experiment with MOLT-4, in the experiment on NCI-H23, with NCI-H460, with NCI/ADR-RES and with OVCAR-5 was > 100 µM (inactive) in each case. Moreover, the GI50 in the experiment on RPMI-8226, with SF-268, with SNB-19, with SW-620, with UACC-257 and in the experiment with UACC-62 was > 100 µM (inactive) in each case.
For the compound `CC(=O)O[C@H]1/C(=C/c2ccc(N(C)C)cc2)C[C@H]2[C@@H]3CC=C4C[C@@H](N5CCCC5)CC[C@]4(C)[C@H]3CC[C@]12C`, the GI50 is > 100 µM (inactive) in the experiment with HCT-116; > 100 µM in the experiment with HCT-15; > 100 µM (inactive) in the experiment on HL-60; > 100 µM (inactive) in the experiment with HOP-92; > 100 µM (inactive) in the experiment with K562; > 100 µM (inactive) with MOLT-4. For the same compound, the GI50 in the experiment with NCI-H23 is > 100 µM (inactive); in the experiment with NCI-H460, 61.9 µM (inactive); with NCI/ADR-RES, > 100 µM (inactive); in the experiment on OVCAR-5 it was > 100 µM (inactive); in the experiment with RPMI-8226 it was > 100 µM (inactive); in the experiment with SF-268 it was > 100 µM (inactive). Also, the GI50 with SN12C, with SNB-19, in the experiment on SW-620, in the experiment on UACC-257 and in the experiment with UACC-62 was > 100 µM (inactive) each time.
In the case of `COc1cc2[nH]c(=O)[nH]c2c2c(C)c[nH]c12`, the GI50 with CAKI-1 was > 100 µM (inactive); in the experiment with HCC 2998, > 100 µM (inactive); in the experiment on HCT-116 it was > 100 µM (inactive); in the experiment on HCT-15, > 100 µM; in the experiment with HL-60, > 100 µM (inactive); in the experiment on K562, > 100 µM (inactive). For the same compound, the GI50 in the experiment on KM12, in the experiment on MOLT-4, with NCI-H23, with NCI-H460, in the experiment on NCI/ADR-RES and with OVCAR-5 was > 100 µM (inactive) each time. Further, the GI50 with RPMI-8226, in the experiment on SF-268, with SN12C, with SNB-19, in the experiment with SW-620 and in the experiment with UACC-257 was > 100 µM (inactive) in each case. The GI50 in the experiment on UACC-62 is > 100 µM (inactive).
As for `Clc1ccc(OCc2nnc(CCCCCCCCc3nnc(COc4ccc(Cl)cc4)n3Nc3ccccc3)n2Nc2ccccc2)cc1`, the GI50 in the experiment with CAKI-1 was 0.531 µM (active); in the experiment with HCC 2998, 12.2 µM (inactive); in the experiment with HCT-116, 4.44 µM (inactive); with HCT-15, 4.06 µM; in the experiment with HOP-92, 21.4 µM (inactive); in the experiment on K562, 0.343 µM (active). The GI50 in the experiment on KM12 was 11.2 µM (inactive); in the experiment on MOLT-4, 12.3 µM (inactive); in the experiment on NCI-H23 it was 18.2 µM (inactive); with NCI-H460, 2.71 µM (inactive); in the experiment on NCI/ADR-RES, 3.84 µM (inactive); with OVCAR-5, 2.74 µM (inactive). Besides, the GI50 with RPMI-8226 was 0.21 µM (active); with SF-268, 12.8 µM (inactive); in the experiment on SN12C, 18.2 µM (inactive); with SNB-19, 12.9 µM (inactive); with SW-620 it was 16.9 µM (inactive); with UACC-257, 7.35 µM (inactive). The GI50 in the experiment with UACC-62 was 0.895 µM (active).
As to `C[N+](C)(C)CCOP(=O)([O-])OCCNC(=O)c1ccc2ccccc2c1`, the GI50 is > 100 µM (inactive) with CAKI-1; > 100 µM (inactive) in the experiment with HCC 2998; > 100 µM (inactive) with HCT-116; > 100 µM with HCT-15; > 100 µM (inactive) in the experiment with HL-60; > 100 µM (inactive) in the experiment with K562. For the same compound, the GI50 in the experiment on KM12 was > 100 µM (inactive); with MOLT-4, > 100 µM (inactive); with NCI-H23, > 100 µM (inactive); with NCI/ADR-RES it was 31.5 µM (inactive); in the experiment with OVCAR-5, > 100 µM (inactive); in the experiment with RPMI-8226, > 100 µM (inactive). Moreover, the GI50 with SF-268, with SN12C, in the experiment with SNB-19, in the experiment on SW-620, with UACC-257 and with UACC-62 was > 100 µM (inactive) throughout.
Consider `C/C(=N\NC1=NCCN1)c1cn(C2=NCCN2)nc1C`, for which the GI50 in the experiment with CAKI-1 was > 100 µM (inactive); with HCC 2998, > 100 µM (inactive); in the experiment with HCT-116, > 100 µM (inactive); in the experiment on HCT-15 it was > 100 µM; in the experiment on HOP-92 it was 97.1 µM (inactive); in the experiment on K562, 59.6 µM (inactive). The GI50 with KM12, in the experiment with NCI-H23, in the experiment with NCI-H460, with NCI/ADR-RES, with OVCAR-5 and in the experiment on RPMI-8226 was > 100 µM (inactive) in each case. The GI50 in the experiment with SF-268, with SN12C, with SNB-19, in the experiment on SW-620, in the experiment with UACC-257 and in the experiment with UACC-62 was > 100 µM (inactive) throughout.
Take `COC(=O)[C@@H](NC(=O)c1ccc(CNC(=O)/C(C)=C/c2ccccc2)cc1)C(C)C`: the GI50 in the experiment on CAKI-1 was > 100 µM (inactive); in the experiment on HCC 2998 it was 26.9 µM (inactive); with HCT-116, > 100 µM (inactive); in the experiment with HCT-15 it was > 100 µM; in the experiment on HOP-92 it was > 100 µM (inactive); with K562, > 100 µM (inactive). Further, the GI50 with KM12 is 36.1 µM (inactive); in the experiment on MOLT-4 it was 78.2 µM (inactive); with NCI-H23 it was > 100 µM (inactive); in the experiment with NCI-H460, 65 µM (inactive); in the experiment on NCI/ADR-RES, > 100 µM (inactive); with OVCAR-5, > 100 µM (inactive). Moreover, the GI50 in the experiment with RPMI-8226 was 69.8 µM (inactive); in the experiment on SF-268, > 100 µM (inactive); with SN12C, > 100 µM (inactive); in the experiment with SNB-19 it was > 100 µM (inactive); in the experiment with SW-620, > 100 µM (inactive); with UACC-257, 14.2 µM (inactive). In the experiment on UACC-62, the GI50 was 70 µM (inactive).
Regarding `C/C1=C/C2OC(=O)C3(C)C2C(CC2(C)OC1=CC2=O)OC3(O)C(C)C` (centres undefined), the GI50 in the experiment with CAKI-1 was 30.5 µM (inactive); with HCC 2998, 20.9 µM (inactive); with HCT-116, > 61.1 µM (inactive); in the experiment on HCT-15, 20.3 µM; in the experiment on HL-60, 18.7 µM (inactive); with K562, 32.7 µM (inactive). Also, the GI50 in the experiment on KM12 is 27 µM (inactive); in the experiment with MOLT-4, 29.4 µM (inactive); in the experiment on NCI-H23, 15 µM (inactive); in the experiment on NCI-H460, 42.5 µM (inactive); with NCI/ADR-RES it was 59 µM (inactive); in the experiment on OVCAR-5, 34.8 µM (inactive). The GI50 in the experiment with RPMI-8226 is 21.8 µM (inactive); with SF-268, 38.9 µM (inactive); with SN12C, 31.4 µM (inactive); in the experiment on SNB-19 it was 42.5 µM (inactive); in the experiment with SW-620, 23.7 µM (inactive); in the experiment on UACC-257, 26.9 µM (inactive). For the same compound, in the experiment with UACC-62, the GI50 was 20.6 µM (inactive).
`O=C1CSC2(CC(/C=C/c3cccc(Br)c3)=NN2c2cccc(S(=O)(=O)O)c2)N1c1nc2ccccc2s1` (centres undefined): the GI50 with CAKI-1 was > 100 µM (inactive); with HCC 2998, > 100 µM (inactive); in the experiment with HCT-116 it was > 100 µM (inactive); in the experiment on HCT-15, > 100 µM; with HOP-92 it was > 49.7 µM (inactive); with K562, 42.8 µM (inactive). Further, the GI50 in the experiment on KM12 is > 90.8 µM (inactive); in the experiment on MOLT-4 it was > 100 µM (inactive); with NCI-H23, > 100 µM (inactive); in the experiment on NCI-H460, > 100 µM (inactive); in the experiment with NCI/ADR-RES, > 100 µM (inactive); in the experiment on OVCAR-5 it was > 100 µM (inactive). The GI50 in the experiment with RPMI-8226 was 25.5 µM (inactive); in the experiment on SF-268, > 100 µM (inactive); in the experiment on SN12C, > 100 µM (inactive); with SNB-19 it was > 100 µM (inactive); with SW-620 it was > 100 µM (inactive); with UACC-257, > 100 µM (inactive). In addition, the GI50 with UACC-62 is 80.2 µM (inactive).
